# Data taken from paper PMC12040169 (PLOS Biology, 2025).
# Tests used:
# [1] = test system: T1, CTL2-GFP (C. trachomatis L2/434/Bu, GFP-expressing); assay: microbe, parasite or virus in culture; parameters: species or system HeLa; Intracellular C. trachomatis growth in HeLa cells, bulk GFP fluorescence relative to DMSO; settings: Chlamydia trachomatis, 28.5 h; bulk GFP
# T1 construct: L2/434/Bu, GFP-expressing
# Protocol: (§1) MICs were calculated as described above.
# [2] = test system: T1, CTL2-GFP (C. trachomatis L2/434/Bu, GFP-expressing); assay: microbe, parasite or virus in culture; parameters: Intracellular C. trachomatis growth in HeLa cells, bulk GFP fluorescence relative to DMSO; settings: Chlamydia trachomatis, HeLa, 28.5 h; bulk GFP
# Protocol: as §1
# C. albicans = test system: T2, C. albicans; assay: microbe, parasite or virus in culture; parameters: Microbial growth in liquid dilution assay, OD600 relative to DMSO control; settings: Candida albicans, read-out: C. albicans, IC50 (µM) estimate
# T2 construct: DSM 1577
# L. iners = test system: T3, L. iners; assay: organism not typed; parameters: Microbial growth in liquid dilution assay, OD600 relative to DMSO control; settings: estimated IC50; read-out: L. iners, IC50 (µM) estimate
# T3 construct: DSM 13335
# G. vaginalis = test system: T4, G. vaginalis; assay: microbe, parasite or virus in culture; parameters: Microbial growth in liquid dilution assay, OD600 relative to DMSO control; settings: Gardnerella vaginalis, read-out: G. vaginalis, IC50 (µM) estimate
# T4 construct: DSM 4944
# B. adolescentis = test system: T5, B. adolescentis; assay: microbe, parasite or virus in culture; parameters: Microbial growth in liquid dilution assay, OD600 relative to DMSO control; settings: Bifidobacterium adolescentis; estimated IC50; read-out: B. adolescentis, IC50 (µM) estimate
# T5 construct: DSM 20083
# Excerpt: (§2) Compound effects on commensal microbes in dilution assay As our objective was to discover compounds that inhibit Chlamydia selectively but spare commensal bacteria, we further tested 15 of our top compounds (c1e–c10e and c1v–c5v) against five bacterial species, Escherichia coli, Lactobacillus reuteri, Enterococcus faecalis, Bacteroides thetaiotaomicron, and Bifidobacterium adolescentis, representing the four dominating phyla of the human gut microbiota. […] Exceptions were c3e and c5e, which at 30 µM were inhibitory to some species. […] Of note, c1e–c3e had little or no effect on the growth of an even larger set of species of gut bacteria, also including Blautia coccoides, Prevotella copri, Prevotella histicola, Bacteroides fragilis, and Dubosiella newyorkensis, when tested in radial diffusion assays, in which the bacteria were exposed to compounds for 24–48 h before measurements of growth inhibition zones (S10B Fig and S5G Data).
# E. faecalis = test system: T6, E. faecalis; assay: microbe, parasite or virus in culture; parameters: Microbial growth in liquid dilution assay, OD600 relative to DMSO control; settings: Enterococcus faecalis; estimated IC50; read-out: E. faecalis, IC50 (µM) estimate
# T6 construct: DSM 20478
# Excerpt: as §2
# E. coli = test system: T7, E. coli; assay: microbe, parasite or virus in culture; parameters: Microbial growth in liquid dilution assay, OD600 relative to DMSO control; settings: Escherichia coli; estimated IC50; read-out: E. coli, IC50 (µM) estimate
# T7 construct: DSM 301
# Excerpt: as §2
# B. thetaiotaomicron = test system: T8, B. thetaiotaomicron; assay: microbe, parasite or virus in culture; parameters: Microbial growth in liquid dilution assay, OD600 relative to DMSO control; settings: Bacteroides thetaiotaomicron; estimated IC50; read-out: B. thetaiotaomicron, IC50 (µM) estimate
# T8 construct: DSM 2079
# Excerpt: as §2
# L. reuteri = test system: T9, L. reuteri; assay: microbe, parasite or virus in culture; parameters: Microbial growth in liquid dilution assay, OD600 relative to DMSO control; settings: Limosilactobacillus reuteri; estimated IC50; read-out: L. reuteri, IC50 (µM) estimate
# T9 construct: DSM 20016
# Excerpt: as §2
# L. crispatus = test system: T10, L. crispatus; assay: microbe, parasite or virus in culture; parameters: Microbial growth in liquid dilution assay, OD600 relative to DMSO control; settings: Lactobacillus crispatus; estimated IC50; read-out: L. crispatus, IC50 (µM) estimate
# T10 construct: DSM 20584
# [3] = test system: T1, CTL2-GFP (C. trachomatis L2/434/Bu, GFP-expressing); assay: microbe, parasite or virus in culture; parameters: C. trachomatis growth in HeLa, dose-response, mean of bulk GFP fluorescence and imaged total inclusion area; settings: Chlamydia trachomatis, HeLa, 28.5 h; mean of GFP and inclusion area
# Outline: (§3)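 GFP/resorufin bulk fluorescence read → fix → Hoechst stain → high-content imaging. Inclusion total area + count = growth proxy; nuclei count = host viability proxy. MIC calc per earlier method.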
# [4] = test system: T1, CTL2-GFP (C. trachomatis L2/434/Bu, GFP-expressing); assay: microbe, parasite or virus in culture; parameters: species or system HeLa; C. trachomatis growth in HeLa, dose-response, mean of bulk GFP fluorescence and imaged total inclusion area; settings: Chlamydia trachomatis, 28.5 h; mean of GFP and inclusion area
# Outline: as §3
# in vitro = assay: in vitro; parameters: Viability of infected HeLa host cells, resazurin conversion, bulk resorufin fluorescence relative to DMSO; settings: human, hela cells; bulk resorufin, mean of 3
# [5] = target: T11, acyl-modification-free ctFabH (Chlamydia trachomatis, UniProt O84242); assay: intact protein LC/MS; type: biochemical; settings: covalent acyl-enzyme intermediate; 10 µM protein, 50 µM acyl-CoA, pH 7.0
# T11 construct: gene fabH
# T11 sequence (O84242 2-327): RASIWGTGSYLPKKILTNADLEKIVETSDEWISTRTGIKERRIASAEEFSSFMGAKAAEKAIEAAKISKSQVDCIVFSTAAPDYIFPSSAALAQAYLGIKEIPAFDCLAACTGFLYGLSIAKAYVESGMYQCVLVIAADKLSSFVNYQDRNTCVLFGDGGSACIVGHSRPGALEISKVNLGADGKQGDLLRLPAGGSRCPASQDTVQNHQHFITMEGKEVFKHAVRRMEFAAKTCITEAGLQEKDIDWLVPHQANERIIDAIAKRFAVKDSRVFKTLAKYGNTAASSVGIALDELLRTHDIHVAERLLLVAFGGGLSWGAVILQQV
# [6] = target: T12, ctFabH (CTL2 FabH), His6(-fMet)SG-ctFabH (Chlamydia trachomatis, UniProt O84242); assay: continuous UV assay of acetoacetyl-CoA at […] nm; type: biochemical; settings: 20 µM enzyme, 100 µM acetyl-CoA, 100 µM malonyl-CoA, pH 8.0, 25 °C, 50 mM MgCl2
# T12 construct: synthetic gene, modified pRSF-Duet1, E. coli host; partly acylated (mainly pentanoyl) as purified
# T12 sequence (O84242 2-327): T11 sequence (O84242 2-327)
Structure (SMILES),IC50 (C. albicans) [µM],IC50 (L. iners) [µM],IC50 (G. vaginalis) [µM],IC50 (B. adolescentis) [µM],IC50 (E. faecalis) [µM],IC50 (E. coli) [µM],IC50 (B. thetaiotaomicron) [µM],IC50 (L. reuteri) [µM],IC50 (L. crispatus) [µM],IC50 [3] [µM],"viability at 28.5 h, 0.000416667 µM (in vitro) [%]","viability at 28.5 h, 0.00125 µM (in vitro) [%]","viability at 28.5 h, 0.00375 µM (in vitro) [%]","viability at 28.5 h, 0.0123333 µM (in vitro) [%]","viability at 28.5 h, 0.037 µM (in vitro) [%]","viability at 28.5 h, 0.111 µM (in vitro) [%]","viability at 28.5 h, 0.333 µM (in vitro) [%]","viability at 28.5 h, 1 µM (in vitro) [%]","viability at 28.5 h, 3 µM (in vitro) [%]","viability at 28.5 h, 10 µM (in vitro) [%]",also measured
Cc1noc(NS(=O)(=O)c2ccc(NC(=O)CSc3nc4ccccc4s3)cc2)c1C [c1v],> 30,> 30,> 30,> 30,> 30,> 30,> 30,> 30,> 30,,,,,,,,,,,,MIC [1]: 0.552 µM; IC50 [2]: 0.412 µM
O=C(c1ccc(-c2ccc(F)cc2)o1)N1C[C@H]2CC[C@](O)(c3ccc(F)cc3)[C@H]2C1 [c2e],> 30,> 30,> 30,> 30,> 30,> 30,> 30,> 30,> 30,0.0961,90.3,85.8,93.6,89,91.7,95.5,95.7,93.7,98.2,98.8,"MIC [4]: 0.139 µM; viability at 28.5 h, 30 µM (in vitro): 116%"
CC(C)CC(=O)SCCNC(=O)CCNC(=O)[C@H](O)C(C)(C)COP(=O)(O)OP(=O)(O)OC[C@H]1O[C@@H](n2cnc3c(N)ncnc32)[C@H](O)[C@@H]1OP(=O)(O)O [isovaleryl-CoA],,,,,,,,,,,,,,,,,,,,,"intact protein LC/MS [5]: 2-methylbutyryl-CoA or isovaleryl-CoA, as expected, generated the corresponding acyl-enzyme intermediates"
O=C(N/N=C\c1ccc([N+](=O)[O-])o1)c1nc(-c2ccccc2)cc(-c2ccccc2)n1 [c3e],> 30,> 30,> 30,18.3,15.4,> 30,10.3,> 30,> 30,0.126,92,92.4,88.3,89.2,86.8,92.2,91.6,90.7,90,98.9,"viability at 28.5 h, 30 µM (in vitro): 107%"
c1c(C2CC2)[nH]c2nc(N3CCCC3)nc(N3CCCC3)c12 [c7e],,,,> 30,> 30,> 30,> 30,> 30,,0.443,88.8,85.2,86.7,86.6,89.7,85.9,89.7,87.4,89.6,86.6,"MIC [4]: 0.669 µM; viability at 28.5 h, 30 µM (in vitro): 81.1%"
CC(=O)SCCNC(=O)CCNC(=O)[C@H](O)C(C)(C)COP(=O)(O)OP(=O)(O)OC[C@H]1O[C@@H](n2cnc3c(N)ncnc32)[C@H](O)[C@@H]1OP(=O)(O)O [acetyl-CoA],,,,,,,,,,,,,,,,,,,,,continuous UV assay of acetoacetyl-CoA at 302 nm [6]: using acetyl-CoA and malonyl-CoA (instead of malonyl-ACP) as substrates
